US20250120948A1, “Small Molecules G(alpha)I2 Inhibitors and Combination With Anticancer Drugs and Use Thereof” (Georgia Tech Research Corporation, priority 2023, published 2025)
Blank lines part the entries; values can stand above or below the molecule they belong to.

Assays:
PC3 cells = assay: Transwell migration assay in PC3 prostate cancer cells; type: cell-based, human; details: for effect on PC3 cell migration: compounds tested at 0.1 to 100 μM, compared with 14; for block of SAHA-stimulated cell migration in PC3 cells / block of docetaxel-stimulated cell migration in PC3 cells: second generation inhibitors at 20 μM, simultaneous treatment; for effect of chemotherapeutic drug on cell migration in PC3 cells: drug alone
Protocol: (§1) In vitro transwell migration assays were conducted as described previously (Caggia et al., “Novel Role of Gialpha2 in Cell Migration: Downstream of PI3-kinase-AKT and RacI in Prostate Cancer Cells,” J Cell Physiol, 234:802-815 (2018); Caggia et al., “Small Molecule Inhibitors Targeting Galphai2 Protein Attenuate Migration of Cancer Cells,” Cancers (Basel), 12(6):1631 (2020)). Briefly, the outside of the transwell inserts (BD Biosciences, San Jose, CA) were coated with 50 μl of rat tail collagen ([…]; BD Biosciences, San Jose, CA) overnight at 4° C. The next day, 50 μl of the aforementioned rat tail collagen were added for 1 hour at room temperature into the transwell inserts, to coat the inside of the membranes. DU145, PC3 and LNCaP cells were trypsinized and suspended at the appropriate density (3×10^5 cells/insert for DU145 and PC3, and 5×10^5 cells/insert for LNCaP) in MEM or RPMI containing 0.2% BSA (Sigma-Aldrich, St. Louis, MO). Chemoattractant solution, used as positive control, was made by diluting the epidermal growth factor (EGF) (10 ng/ml) into MEM (PC3 and DU145) or RPMI (LNCaP) supplemented with 0.2% BSA. Media containing 0.2% BSA served as a control. Control and EGF solutions ([…]) were added into the wells of a 24-well plate. Aliquots of 100 μl of cell suspensions, treated with or without the different compounds at several concentrations, were loaded into the transwell inserts and the plates were incubated at 37° C. for 5 hours (DU145 and PC3) or 24 hours (LNCaP). The cells inside the transwell inserts were removed by cotton swabs, and the cleaned inserts were fixed with 350 μl of 4% paraformaldehyde (pH 7.5) for 20 minutes at room temperature. Cells that had migrated to the outside of the transwell insert membrane were stained with 3 ng/ml of DAPI solution (Thermo Fisher Scientific, Eugene, OR) and images of five non-overlapping fields were captured using Axiovert 200M, Carl Zeiss (Thornwood, NY) microscope. The number of stained nuclei were determined with automatic counting using image analysis software (ZEN 2012; Carl Zeiss). Results were expressed as migration index defined as the average number of cells per field for test substance/the average number of cells per field for the medium control.
The effects of the newly synthesized compounds on the migratory behavior of PC3 cells were investigated in transwell migration assays as inventors have done before (Caggia et al., “Small Molecule Inhibitors Targeting Galphai2 Protein Attenuate Migration of Cancer Cells,” Cancers (Basel), 12(6):1631 (2020)). Compounds were tested at a concentration range of 0.1 to 100 μM. […] To potentially obtain insight into the disparity in their Gαi inhibition activities, molecular docking was performed on the enantiomers of 6 (6-R and 6-S) and 15 (15-R and 15-S). […] This slightly weaker binding affinity may partially explain the disproportionately weaker potency of 15 relative to 6. Other molecular factors, such as those which led to the attenuated potency observed with amino- to ether-group switch in the 7/10 pair, may contribute to the reduced potency of 15. Finally, most of these compounds have no effects on the morphology of PC3 cells or viability of several cancer cells at the concentrations as high as 100 μM.

[1] = Stability in human liver microsomes; type: in vitro ADME
Protocol: (§2) On the strength of their potency, the stability of 6, 7 and 10 was determined in human and mouse plasma and liver microsomes.

[2] = Stability in mouse liver microsomes; type: in vitro ADME
Protocol: as §2

LNCaP cells = assay: Transwell migration assay in LNCaP prostate cancer cells; type: cell-based, human; details: drug alone; for effect of chemotherapeutic drug on cell migration in LNCaP cells: several concentrations, 24 hours
Protocol: as §1
To determine the effects of HDACi on prostate cancer cell migration, migration assays were performed in androgen receptor (AR)-positive LNCaP cells using several concentrations of SAHA (0.1, 0.25, 0.5, 1, 2, 4 μM), a commercially available HDACi. […] Inventors have previously developed a very potent HDACi inhibitor (SBI-I-19), coupled with an anti-androgen, enzalutamide, which selectively targets androgen sensitive prostate cancer cells for its cytotoxic effects (Gryder et al., “Selectively Targeting Prostate Cancer with Antiandrogen Equipped Histone Deacetylase Inhibitors,” ACS Chem Biol, 8:2550-2560 (2013)). The possible effects of different concentrations of SBI-I-19 on cell migration in LNCaP cells were determined.

DU145 cells = assay: Transwell migration assay in DU145 prostate cancer cells; type: cell-based, human; details: drug alone
Protocol: In vitro transwell migration assays were conducted as described previously (Caggia et al., “Novel Role of Gialpha2 in Cell Migration: Downstream of PI3-kinase-AKT and RacI in Prostate Cancer Cells,” J Cell Physiol, 234:802-815 (2018); Caggia et al., “Small Molecule Inhibitors Targeting Galphai2 Protein Attenuate Migration of Cancer Cells,” Cancers (Basel), 12(6):1631 (2020)). Briefly, the outside of the transwell inserts (BD Biosciences, San Jose, CA) were coated with 50 μl of rat tail collagen ([…]; BD Biosciences, San Jose, CA) overnight at 4° C. The next day, 50 μl of the aforementioned rat tail collagen were added for 1 hour at room temperature into the transwell inserts, to coat the inside of the membranes. DU145, PC3 and LNCaP cells were trypsinized and suspended at the appropriate density (3×10^5 cells/insert for DU145 and PC3, and 5×10^5 cells/insert for LNCaP) in MEM or RPMI containing 0.2% BSA (Sigma-Aldrich, St. Louis, MO). Chemoattractant solution, used as positive control, was made by diluting the epidermal growth factor (EGF) (10 ng/ml) into MEM (PC3 and DU145) or RPMI (LNCaP) supplemented with 0.2% BSA. Media containing 0.2% BSA served as a control. Control and EGF solutions ([…]) were added into the wells of a 24-well plate. Aliquots of 100 μl of cell suspensions, treated with or without the different compounds at several concentrations, were loaded into the transwell inserts and the plates were incubated at 37° C. for 5 hours (DU145 and PC3) or 24 hours (LNCaP). […] The number of stained nuclei were determined with automatic counting using image analysis software (ZEN 2012; Carl Zeiss). Results were expressed as migration index defined as the average number of cells per field for test substance/the average number of cells per field for the medium control.
To determine whether the induction of cell migration by AR-antagonists and HDACi was limited to only AR-positive cells, the effects of anti-androgens and HDACi and docetaxel in AR-negative DU145 and PC3 cells were determined.

stability in liver microsomes [1]: robustly stable in both species
stability in liver microsomes [2]: robustly stable in both species
Structure (SMILES): CC(Nc1ccc(O)cc1)c1cc2ccccc2n1C (racemic) [Compound 6, 4-((1-(1-methyl-1H-indol-2-yl)ethyl)amino)phenol]
block of stimulatory effects of Docetaxel on PC3 cell migration (PC3 cells; FIG. 13, concentration not given): block the stimulatory effects of Docetaxel on PC3 cell migration
effect on PC3 cell migration (PC3 cells): more effective relative to 14
block of SAHA-stimulated cell migration in PC3 cells (PC3 cells): blocked the stimulatory effects of docetaxel and SAHA in PC3 cells
block of docetaxel-stimulated cell migration in PC3 cells (PC3 cells): blocked the stimulatory effects of docetaxel and SAHA in PC3 cells

stability in liver microsomes [1]: only stable in the human microsome
stability in liver microsomes [2]: only stable in the human microsome
Structure (SMILES): CSc1ccc(NC(C)c2cc3ccccc3n2C)cc1 (racemic) [Compound 7, N-(1-(1-methyl-1H-indol-2-yl)ethyl)-4-(methylthio)aniline]
block of stimulatory effects of EGF on PC3 cell migration (PC3 cells; EGF-stimulated): blocks the stimulatory effects of EFG on PC3 cell migration
effect on PC3 cell migration (PC3 cells): more effective relative to 14
block of SAHA-stimulated cell migration in PC3 cells (PC3 cells): blocked the stimulatory effects of docetaxel and SAHA in PC3 cells
block of docetaxel-stimulated cell migration in PC3 cells (PC3 cells): blocked the stimulatory effects of docetaxel and SAHA in PC3 cells

Structure (SMILES): CC(Oc1ccc(S(C)(=O)=O)cc1)c1cc2ccccc2n1C (racemic) [Compound 12, 1-methyl-2-(1-(4-(methylsulfonyl)phenoxy)ethyl)-1H-indole]
effect on PC3 cell migration (PC3 cells): less effective, eliciting reduced anti-migration activities relative to the other compounds

Structure (SMILES): CC(Oc1ccc(O)cc1)c1cc2ccccc2n1C (racemic) [Compound 15, 4-(1-(1-methyl-1H-indol-2-yl)ethoxy)phenol]
effect on PC3 cell migration (PC3 cells): did not inhibit the migration of PC3 cells at the maximum concentration tested

Structure (SMILES): Cn1c(/C=N/c2ccc(O)cc2)cc2ccccc21 [Compound 3, (E)-4-(((1-methyl-1H-indol-2-yl)methylene)amino)phenol]
effect on PC3 cell migration (PC3 cells): concentration dependent reduction of PC3 cell migration, but less efficiently relative to 14

Structure (SMILES): CSc1ccc(/N=C(\C)c2cc3ccccc3n2C)cc1 [Compound 4, (E)-1-(1-methyl-1H-indol-2-yl)-N-(4-(methylthio)phenyl)ethan-1-imine]
effect on PC3 cell migration (PC3 cells): concentration dependent reduction of PC3 cell migration, but less efficiently relative to 14

Structure (SMILES): Cn1c(CNc2ccc(O)cc2)cc2ccccc21 [Compound 5, 4-(((1-methyl-1H-indol-2-yl)methyl)amino)phenol]
effect on PC3 cell migration (PC3 cells): comparable potency

stability in liver microsomes [1]: only stable in the human microsome
stability in liver microsomes [2]: only stable in the human microsome
Structure (SMILES): CSc1ccc(OC(C)c2cc3ccccc3n2C)cc1 (stereo not drawn) [Compound 10, 1-methyl-2-(1-(4-(methylthio)phenoxy)ethyl)-1H-indole]
effect on PC3 cell migration (PC3 cells): less potent compared to 7
block of SAHA-stimulated cell migration in PC3 cells (PC3 cells): blocked the stimulatory effects of docetaxel and SAHA in PC3 cells
block of docetaxel-stimulated cell migration in PC3 cells (PC3 cells): blocked the stimulatory effects of docetaxel and SAHA in PC3 cells

Structure (SMILES): CC(Oc1ccc([S+](C)[O-])cc1)c1cc2ccccc2n1C (stereo not drawn) [Compound 13, 1-methyl-2-(1-(4-(methylsulfinyl)phenoxy)ethyl)-1H-indole]
effect on PC3 cell migration (PC3 cells): less effective, eliciting reduced anti-migration activities relative to the other compounds

Structure (SMILES): O=C(CCCCCCC(=O)Nc1ccccc1)NO [SAHA]
effect of chemotherapeutic drug on cell migration in PC3 cells (PC3 cells): induced increase in cell migration
effect of chemotherapeutic drug on cell migration in LNCaP cells (LNCaP cells): significant dose-dependent increase in cell migration
effect of chemotherapeutic drug on cell migration in DU145 cells (DU145 cells): increased cell migration

Structure (SMILES): CC1(C)C(=O)N(c2ccc(C#N)c(C(F)(F)F)c2)C(=O)N1Cc1ccc(-c2cn(CCCCC(=O)NO)nn2)cc1 [SBI-I-19]
effect of chemotherapeutic drug on cell migration in LNCaP cells (LNCaP cells): significant dose-dependent increase in cell migration
effect of chemotherapeutic drug on cell migration in DU145 cells (DU145 cells): increased cell migration

Structure (SMILES): CC(O)(CS(=O)(=O)c1ccc(F)cc1)C(=O)Nc1ccc(C#N)c(C(F)(F)F)c1 (stereo not drawn) [bicalutamide]
concentration of maximum induction of cell migration in LNCaP cells (LNCaP cells): 2.5 µM

Structure (SMILES): CC(=O)O[C@@]12CO[C@@H]1C[C@H](O)[C@@]1(C)C(=O)[C@H](O)C3=C(C)[C@@H](OC(=O)[C@H](O)[C@@H](NC(=O)OC(C)(C)C)c4ccccc4)C[C@@](O)([C@@H](OC(=O)c4ccccc4)[C@H]21)C3(C)C [docetaxel, reference compound]
effect of chemotherapeutic drug on cell migration in PC3 cells (PC3 cells): induced increase in cell migration

Structure (SMILES): CNC(=O)c1ccc(N2C(=S)N(c3ccc(C#N)c(C(F)(F)F)c3)C(=O)C2(C)C)cc1F [enzalutamide]
concentration of maximum induction of cell migration in LNCaP cells (LNCaP cells): 2.5 µM
effect of chemotherapeutic drug on cell migration in LNCaP cells (LNCaP cells): dose-dependent increase in cell migration
effect of chemotherapeutic drug on cell migration in DU145 cells (DU145 cells): increased cell migration
